We go through two compounds from US11666636B2, “GLP-1R agonists and uses thereof” (priority 2017, dated 2023).

The conditions of data set [1]: 6 days after infection; vs vehicle.
Data set [2] concerns serum inflammatory cytokines. The settings on record: rodent model; reported in literature; cited from earlier work.
Data set [3] deals with liver inflammation, aortic atherosclerosis. Conditions: rodent model; reported in literature; cited from earlier work.

For `CCCCCCCCCCCCCCCC(=O)N[C@@H](CCC(=O)NCCCC[C@H](NC(=O)[C@H](C)NC(=O)[C@H](C)NC(=O)[C@H](CCC(N)=O)NC(=O)CNC(=O)[C@H](CCC(=O)O)NC(=O)[C@H](CC(C)C)NC(=O)[C@H](Cc1ccc(O)cc1)NC(=O)[C@H](CO)NC(=O)[C@H](CO)NC(=O)[C@@H](NC(=O)[C@H](CC(=O)O)NC(=O)[C@H](CO)NC(=O)[C@@H](NC(=O)[C@H](Cc1ccccc1)NC(=O)[C@@H](NC(=O)CNC(=O)[C@H](CCC(=O)O)NC(=O)[C@H](C)NC(=O)[C@@H](N)Cc1cnc[nH]1)[C@@H](C)O)[C@@H](C)O)C(C)C)C(=O)N[C@@H](CCC(=O)O)C(=O)N[C@@H](Cc1ccccc1)C(=O)N[C@H](C(=O)N[C@@H](C)C(=O)N[C@@H](Cc1c[nH]c2ccccc12)C(=O)N[C@@H](CC(C)C)C(=O)N[C@H](C(=O)N[C@@H](CCCNC(=N)N)C(=O)NCC(=O)N[C@@H](CCCNC(=N)N)C(=O)NCC(=O)O)C(C)C)[C@@H](C)CC)C(=O)O` [GLP-1R agonist, liraglutide], in data set [1], the plasma glucose levels result is “no statistically significant changes” and the plasma insulin levels entry is reported as “no statistically significant changes”.

In the case of exendin-4, the “serum inflammatory cytokines during LPS-induced endotoxemia” value in data set [2] was “reduced”. Further, in data set [3], the aortic atherosclerosis entry is recorded as “reduced” and the liver inflammation entry was “reduced”.
